In article PMC10882719 (Frontiers in Neuroscience, 2024):
Like-named read-outs stand apart in the source and are kept apart here.

Experiments:
Type in all cases: cell-based
[1] = target: T1, 168 GPCRs (Homo sapiens, UniProt P30988)
T1 construct: host or cells: PathHunter cell lines
T1 sequence (P30988 25-474): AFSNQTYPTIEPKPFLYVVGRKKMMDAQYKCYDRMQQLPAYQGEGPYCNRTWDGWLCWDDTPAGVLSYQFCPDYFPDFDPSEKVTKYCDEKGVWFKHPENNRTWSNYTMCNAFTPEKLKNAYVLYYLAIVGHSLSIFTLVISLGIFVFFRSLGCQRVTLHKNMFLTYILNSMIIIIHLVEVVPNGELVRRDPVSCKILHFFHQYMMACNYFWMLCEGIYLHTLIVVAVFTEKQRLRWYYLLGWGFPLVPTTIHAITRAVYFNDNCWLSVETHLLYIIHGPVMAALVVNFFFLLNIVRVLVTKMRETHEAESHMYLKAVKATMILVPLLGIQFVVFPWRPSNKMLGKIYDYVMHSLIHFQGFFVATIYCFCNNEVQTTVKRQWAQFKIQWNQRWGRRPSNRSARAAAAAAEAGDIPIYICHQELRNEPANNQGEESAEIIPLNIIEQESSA

[2] = target: T2, 168 GPCRs (Homo sapiens, UniProt P32247)
T2 construct: host or cells: PathHunter cell lines
T2 sequence (P32247 1-399): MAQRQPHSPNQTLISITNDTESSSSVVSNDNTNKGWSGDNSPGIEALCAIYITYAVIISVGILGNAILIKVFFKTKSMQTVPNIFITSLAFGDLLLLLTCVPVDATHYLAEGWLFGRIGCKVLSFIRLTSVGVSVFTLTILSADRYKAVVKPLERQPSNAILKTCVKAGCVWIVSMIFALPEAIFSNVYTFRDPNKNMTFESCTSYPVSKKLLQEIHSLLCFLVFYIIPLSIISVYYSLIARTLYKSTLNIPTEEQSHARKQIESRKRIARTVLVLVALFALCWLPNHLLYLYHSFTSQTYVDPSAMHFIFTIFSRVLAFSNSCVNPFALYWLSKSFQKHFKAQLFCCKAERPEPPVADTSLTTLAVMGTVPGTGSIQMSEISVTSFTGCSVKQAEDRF

[3] = target: T3, 168 GPCRs (Homo sapiens, UniProt P34998)
T3 construct: host or cells: PathHunter cell lines
T3 sequence (P34998 24-415): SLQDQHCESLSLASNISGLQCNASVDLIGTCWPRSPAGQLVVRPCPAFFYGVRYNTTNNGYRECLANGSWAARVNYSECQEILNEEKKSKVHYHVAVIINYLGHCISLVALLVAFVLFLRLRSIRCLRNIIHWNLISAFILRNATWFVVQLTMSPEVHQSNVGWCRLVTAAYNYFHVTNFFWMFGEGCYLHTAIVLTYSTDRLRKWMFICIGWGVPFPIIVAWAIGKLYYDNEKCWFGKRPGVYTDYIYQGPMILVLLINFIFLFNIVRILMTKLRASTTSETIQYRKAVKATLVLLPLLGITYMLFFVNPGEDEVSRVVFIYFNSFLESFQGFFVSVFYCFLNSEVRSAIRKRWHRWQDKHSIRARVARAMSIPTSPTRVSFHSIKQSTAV

[4] = target: T4, 168 GPCRs (Homo sapiens, UniProt P35346); settings: SSTR5
T4 construct: host or cells: PathHunter cell lines
T4 sequence (P35346 whole entry): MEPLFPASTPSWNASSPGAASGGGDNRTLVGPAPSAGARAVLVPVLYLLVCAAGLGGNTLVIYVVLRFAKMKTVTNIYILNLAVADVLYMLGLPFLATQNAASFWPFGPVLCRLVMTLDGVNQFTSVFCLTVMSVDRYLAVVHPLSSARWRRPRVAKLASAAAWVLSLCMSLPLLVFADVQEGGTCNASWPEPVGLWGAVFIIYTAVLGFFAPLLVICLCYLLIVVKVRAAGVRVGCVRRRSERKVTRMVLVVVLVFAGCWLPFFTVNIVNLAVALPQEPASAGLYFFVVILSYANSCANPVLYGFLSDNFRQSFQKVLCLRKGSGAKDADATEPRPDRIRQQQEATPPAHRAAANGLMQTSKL

[5] = target: T5, 168 GPCRs (Homo sapiens, UniProt P41587); settings: VIPR2
T5 construct: host or cells: PathHunter cell lines
T5 sequence (P41587 24-438): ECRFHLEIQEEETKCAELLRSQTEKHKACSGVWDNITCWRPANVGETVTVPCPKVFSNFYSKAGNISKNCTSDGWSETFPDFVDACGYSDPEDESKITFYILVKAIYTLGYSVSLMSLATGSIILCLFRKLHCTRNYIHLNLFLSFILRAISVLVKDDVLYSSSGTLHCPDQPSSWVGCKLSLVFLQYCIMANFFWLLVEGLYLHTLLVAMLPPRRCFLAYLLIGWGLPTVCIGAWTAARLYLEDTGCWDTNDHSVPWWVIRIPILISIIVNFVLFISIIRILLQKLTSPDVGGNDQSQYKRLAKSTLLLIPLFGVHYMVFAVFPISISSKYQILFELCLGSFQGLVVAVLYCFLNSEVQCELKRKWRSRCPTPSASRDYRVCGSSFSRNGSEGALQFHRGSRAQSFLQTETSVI

Row | SMILES | % Agonist Activity ([1]; CALCR, 1 uM) [%] | % Antagonist Activity ([1]; CALCR, 1 uM) [%] | % Agonist Activity ([1]; CALCR, 10 uM) [%] | % Antagonist Activity ([1]; CALCR, 10 uM) [%] | % Agonist Activity ([1]; CALCR-RAMP2, 1 uM) [%] | % Antagonist Activity ([1]; CALCR-RAMP2, 1 uM) [%] | % Agonist Activity ([1]; CALCR-RAMP2, 10 uM) [%] | % Antagonist Activity ([1]; CALCR-RAMP2, 10 uM) [%] | % Agonist Activity ([1]; CALCR-RAMP3, 1 uM) [%] | % Antagonist Activity ([1]; CALCR-RAMP3, 1 uM) [%] | % Agonist Activity ([1]; CALCR-RAMP3, 10 uM) [%] | % Antagonist Activity ([1]; CALCR-RAMP3, 10 uM) [%] | % Agonist Activity ([2]; BRS3, 1 uM) [%] | % Antagonist Activity ([2]; BRS3, 1 uM) [%] | % Agonist Activity ([2]; BRS3, 10 uM) [%] | % Antagonist Activity ([2]; BRS3, 10 uM) [%] | % Agonist Activity ([3]; CRHR1, 1 uM) [%] | % Antagonist Activity ([3]; CRHR1, 1 uM) [%] | % Agonist Activity ([3]; CRHR1, 10 uM) [%] | % Antagonist Activity ([3]; CRHR1, 10 uM) [%] | also measured
1 | CNC(C)C(=O)c1ccc2c(c1)OCO2 (centres unmarked) [methylone] | -0.3 | 5.4 | -0.2 | -4.4 | 0.9 | -10.6 | 1.6 | -19.6 | 7.9 | -8.9 | 7.1 | -3.3 | 4.5 | 18.3 | -4.6 | 10.1 | 1.4 | 1.3 | 1.1 | 0.6 | % Agonist Activity ([4]; Conc 1 uM): -2.4%; % Antagonist Activity ([4]; Conc 1 uM): 14.7%; % Agonist Activity ([4]; Conc 10 uM): -1.3%; % Antagonist Activity ([4]; Conc 10 uM): 5.7%; % Agonist Activity ([5]; Conc 1 uM): -0.4%; % Antagonist Activity ([5]; Conc 1 uM): -1.5%; % Agonist Activity ([5]; Conc 10 uM): -0.3%; % Antagonist Activity ([5]; Conc 10 uM): -2.6%
2 | CNC(C)Cc1ccc2c(c1)OCO2 (centres unmarked) [MDMA, 3,4-Methylenedioxy methamphetamine, reference compound] | -3.5 | -8.1 | -2.4 | 6.8 | -0.3 | 12.8 | 2.9 | 15.7 | -18.3 | -3.6 | -1.4 | -1.3 | 2.6 | 7.9 | -3 | 3.8 | 0.7 | -1.7 | 0.2 | 0.2 | % Agonist Activity ([4]; Conc 1 uM): -2.5%; % Antagonist Activity ([4]; Conc 1 uM): 1.6%; % Agonist Activity ([4]; Conc 10 uM): -3.2%; % Antagonist Activity ([4]; Conc 10 uM): -2%; % Agonist Activity ([5]; Conc 1 uM): -1.6%; % Antagonist Activity ([5]; Conc 1 uM): -1.1%; % Agonist Activity ([5]; Conc 10 uM): -0.7%; % Antagonist Activity ([5]; Conc 10 uM): 3.1%
